In patent US20220009920A1 (GB005, Inc., priority 2020, published 2022):

Columns and labels:
Assay in all cases: Large panel kinase profiling
Format in all cases: biochemical
Settings in all cases: 1 μM test article, 1 mM ATP
[1] = target: PTK2 (Homo sapiens, UniProt Q05397)
Outline: (§1)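 With ATP fixed at 1 mM, each kinase was exposed to 1 μM compound in a PhosphoSens CSox-Sensor reaction. Sealed plates were incubated at 30° C. and read in kinetic mode.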

[2] = target: T1, RPS6KA5/MSK1 (Homo sapiens, UniProt O75582)
T1 construct: AssayQuant Technologies, Inc. (contract assay)
Outline: as §1

[3] = target: T2, IKBKB/IKKB (Homo sapiens, UniProt O14920)
T2 construct: AssayQuant Technologies, Inc. (service provider)
T2 sequence (O14920 1-756): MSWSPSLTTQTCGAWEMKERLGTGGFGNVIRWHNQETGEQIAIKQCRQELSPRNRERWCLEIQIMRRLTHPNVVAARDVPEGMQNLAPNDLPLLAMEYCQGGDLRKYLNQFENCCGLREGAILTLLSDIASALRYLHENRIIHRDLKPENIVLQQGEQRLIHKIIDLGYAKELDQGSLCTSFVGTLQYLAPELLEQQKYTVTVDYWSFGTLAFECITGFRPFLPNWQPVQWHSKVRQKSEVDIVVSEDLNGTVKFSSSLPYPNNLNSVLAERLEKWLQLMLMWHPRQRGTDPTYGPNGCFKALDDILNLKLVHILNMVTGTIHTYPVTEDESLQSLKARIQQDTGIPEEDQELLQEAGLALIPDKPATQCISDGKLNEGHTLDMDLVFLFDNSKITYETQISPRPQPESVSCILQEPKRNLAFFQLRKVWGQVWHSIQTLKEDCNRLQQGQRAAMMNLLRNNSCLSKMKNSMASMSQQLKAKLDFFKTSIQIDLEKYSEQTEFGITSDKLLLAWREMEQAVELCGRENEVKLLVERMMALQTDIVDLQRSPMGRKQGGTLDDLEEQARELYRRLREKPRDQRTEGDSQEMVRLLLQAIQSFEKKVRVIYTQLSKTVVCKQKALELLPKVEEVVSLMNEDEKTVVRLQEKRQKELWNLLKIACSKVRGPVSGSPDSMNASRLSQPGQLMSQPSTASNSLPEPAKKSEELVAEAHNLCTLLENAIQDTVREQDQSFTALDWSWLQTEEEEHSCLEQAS
Outline: as §1

[4] = target: T3, IGF1R (Homo sapiens, UniProt P08069)
T3 construct: AssayQuant Technologies, Inc. (service provider)
Outline: as §1

[5] = target: T4, CAMK2G (Homo sapiens, UniProt Q13555)
T4 construct: AssayQuant Technologies, Inc. (ran the panel)
Outline: as §1

[6] = target: T5, PRKD2 (Homo sapiens, UniProt Q9BZL6)
T5 sequence (Q9BZL6 1-878): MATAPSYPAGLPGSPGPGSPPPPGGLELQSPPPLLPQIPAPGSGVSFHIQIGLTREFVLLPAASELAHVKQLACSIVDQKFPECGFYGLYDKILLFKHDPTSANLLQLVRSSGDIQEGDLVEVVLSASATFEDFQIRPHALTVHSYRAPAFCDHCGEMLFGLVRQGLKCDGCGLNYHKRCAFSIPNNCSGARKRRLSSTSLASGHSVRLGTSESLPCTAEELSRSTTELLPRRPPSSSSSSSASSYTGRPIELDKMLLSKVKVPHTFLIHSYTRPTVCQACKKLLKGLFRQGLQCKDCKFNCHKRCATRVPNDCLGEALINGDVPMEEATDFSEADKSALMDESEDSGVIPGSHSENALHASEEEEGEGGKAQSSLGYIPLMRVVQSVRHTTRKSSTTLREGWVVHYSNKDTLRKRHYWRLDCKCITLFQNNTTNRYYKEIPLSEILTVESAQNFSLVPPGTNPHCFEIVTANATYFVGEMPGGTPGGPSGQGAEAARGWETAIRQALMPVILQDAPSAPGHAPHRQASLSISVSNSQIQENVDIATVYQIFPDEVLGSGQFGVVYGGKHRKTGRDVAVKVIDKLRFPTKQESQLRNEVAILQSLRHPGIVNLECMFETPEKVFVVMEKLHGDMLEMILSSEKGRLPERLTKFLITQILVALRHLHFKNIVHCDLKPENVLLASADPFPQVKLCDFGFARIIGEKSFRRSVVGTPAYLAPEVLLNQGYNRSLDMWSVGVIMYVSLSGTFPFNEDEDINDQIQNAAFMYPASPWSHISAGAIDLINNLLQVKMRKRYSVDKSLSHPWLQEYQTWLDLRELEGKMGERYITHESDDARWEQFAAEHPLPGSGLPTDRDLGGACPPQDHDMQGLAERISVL
Outline: as §1

T4 sequence (Q13555 whole entry, species assumed): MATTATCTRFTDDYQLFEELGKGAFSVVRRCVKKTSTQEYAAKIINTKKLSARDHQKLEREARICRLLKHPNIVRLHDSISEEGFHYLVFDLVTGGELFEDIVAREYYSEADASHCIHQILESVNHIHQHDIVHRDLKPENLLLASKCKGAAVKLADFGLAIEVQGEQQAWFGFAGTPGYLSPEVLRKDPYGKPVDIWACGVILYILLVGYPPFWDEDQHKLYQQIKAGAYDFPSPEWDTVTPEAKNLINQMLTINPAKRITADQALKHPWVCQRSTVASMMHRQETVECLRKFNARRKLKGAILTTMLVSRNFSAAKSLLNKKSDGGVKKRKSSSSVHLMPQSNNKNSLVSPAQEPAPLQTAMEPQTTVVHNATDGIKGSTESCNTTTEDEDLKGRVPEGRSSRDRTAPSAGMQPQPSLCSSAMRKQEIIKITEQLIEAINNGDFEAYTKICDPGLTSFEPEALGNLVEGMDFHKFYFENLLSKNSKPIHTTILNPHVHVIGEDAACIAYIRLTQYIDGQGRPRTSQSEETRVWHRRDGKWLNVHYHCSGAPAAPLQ
Chain of PTK2 (Q05397 whole entry, species assumed): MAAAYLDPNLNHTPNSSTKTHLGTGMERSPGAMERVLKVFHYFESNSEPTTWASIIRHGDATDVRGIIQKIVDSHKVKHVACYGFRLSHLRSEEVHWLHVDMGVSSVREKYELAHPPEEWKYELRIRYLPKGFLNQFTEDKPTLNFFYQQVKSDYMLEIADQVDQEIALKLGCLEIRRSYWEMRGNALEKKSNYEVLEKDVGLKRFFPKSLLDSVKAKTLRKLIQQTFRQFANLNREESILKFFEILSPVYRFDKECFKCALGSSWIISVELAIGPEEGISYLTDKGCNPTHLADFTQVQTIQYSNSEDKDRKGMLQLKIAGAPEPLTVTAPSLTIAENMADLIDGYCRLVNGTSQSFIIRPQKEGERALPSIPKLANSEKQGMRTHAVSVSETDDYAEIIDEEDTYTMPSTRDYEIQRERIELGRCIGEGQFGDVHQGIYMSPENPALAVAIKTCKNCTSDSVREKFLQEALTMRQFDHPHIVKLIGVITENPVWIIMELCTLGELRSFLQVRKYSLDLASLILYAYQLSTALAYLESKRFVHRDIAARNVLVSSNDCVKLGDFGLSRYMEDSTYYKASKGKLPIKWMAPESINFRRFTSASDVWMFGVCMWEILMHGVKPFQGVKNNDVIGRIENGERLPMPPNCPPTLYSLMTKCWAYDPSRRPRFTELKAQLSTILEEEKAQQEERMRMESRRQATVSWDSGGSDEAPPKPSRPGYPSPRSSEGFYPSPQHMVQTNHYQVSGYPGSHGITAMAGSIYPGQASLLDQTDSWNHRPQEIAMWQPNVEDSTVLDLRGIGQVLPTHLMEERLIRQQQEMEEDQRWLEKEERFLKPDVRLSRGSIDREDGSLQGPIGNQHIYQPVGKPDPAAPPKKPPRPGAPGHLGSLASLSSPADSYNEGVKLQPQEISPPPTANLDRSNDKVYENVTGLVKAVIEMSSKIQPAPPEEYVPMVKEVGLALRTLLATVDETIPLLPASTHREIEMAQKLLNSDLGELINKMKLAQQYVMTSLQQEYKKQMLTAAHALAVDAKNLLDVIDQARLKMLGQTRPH
T1 sequence (O75582 whole entry): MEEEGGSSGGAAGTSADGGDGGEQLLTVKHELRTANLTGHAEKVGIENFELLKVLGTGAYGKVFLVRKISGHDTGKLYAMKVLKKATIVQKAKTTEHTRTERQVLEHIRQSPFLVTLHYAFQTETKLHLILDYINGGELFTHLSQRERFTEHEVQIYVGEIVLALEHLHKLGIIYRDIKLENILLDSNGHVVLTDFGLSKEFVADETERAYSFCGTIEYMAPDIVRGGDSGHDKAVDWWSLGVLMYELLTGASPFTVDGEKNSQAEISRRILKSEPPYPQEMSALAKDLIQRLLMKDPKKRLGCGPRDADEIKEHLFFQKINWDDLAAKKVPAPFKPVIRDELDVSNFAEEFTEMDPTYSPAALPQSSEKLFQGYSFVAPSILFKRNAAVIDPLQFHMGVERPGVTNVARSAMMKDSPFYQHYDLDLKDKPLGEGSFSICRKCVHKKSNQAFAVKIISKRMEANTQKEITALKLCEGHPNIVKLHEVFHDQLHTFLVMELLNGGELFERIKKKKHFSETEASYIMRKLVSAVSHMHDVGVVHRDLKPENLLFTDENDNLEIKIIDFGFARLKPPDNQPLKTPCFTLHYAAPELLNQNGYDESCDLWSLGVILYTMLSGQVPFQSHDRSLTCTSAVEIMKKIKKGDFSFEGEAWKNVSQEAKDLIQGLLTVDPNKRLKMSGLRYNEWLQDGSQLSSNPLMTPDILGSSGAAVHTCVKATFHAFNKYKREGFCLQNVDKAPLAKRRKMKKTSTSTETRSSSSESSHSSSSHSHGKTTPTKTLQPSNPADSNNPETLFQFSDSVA
T3 sequence (P08069 31-1367, species assumed): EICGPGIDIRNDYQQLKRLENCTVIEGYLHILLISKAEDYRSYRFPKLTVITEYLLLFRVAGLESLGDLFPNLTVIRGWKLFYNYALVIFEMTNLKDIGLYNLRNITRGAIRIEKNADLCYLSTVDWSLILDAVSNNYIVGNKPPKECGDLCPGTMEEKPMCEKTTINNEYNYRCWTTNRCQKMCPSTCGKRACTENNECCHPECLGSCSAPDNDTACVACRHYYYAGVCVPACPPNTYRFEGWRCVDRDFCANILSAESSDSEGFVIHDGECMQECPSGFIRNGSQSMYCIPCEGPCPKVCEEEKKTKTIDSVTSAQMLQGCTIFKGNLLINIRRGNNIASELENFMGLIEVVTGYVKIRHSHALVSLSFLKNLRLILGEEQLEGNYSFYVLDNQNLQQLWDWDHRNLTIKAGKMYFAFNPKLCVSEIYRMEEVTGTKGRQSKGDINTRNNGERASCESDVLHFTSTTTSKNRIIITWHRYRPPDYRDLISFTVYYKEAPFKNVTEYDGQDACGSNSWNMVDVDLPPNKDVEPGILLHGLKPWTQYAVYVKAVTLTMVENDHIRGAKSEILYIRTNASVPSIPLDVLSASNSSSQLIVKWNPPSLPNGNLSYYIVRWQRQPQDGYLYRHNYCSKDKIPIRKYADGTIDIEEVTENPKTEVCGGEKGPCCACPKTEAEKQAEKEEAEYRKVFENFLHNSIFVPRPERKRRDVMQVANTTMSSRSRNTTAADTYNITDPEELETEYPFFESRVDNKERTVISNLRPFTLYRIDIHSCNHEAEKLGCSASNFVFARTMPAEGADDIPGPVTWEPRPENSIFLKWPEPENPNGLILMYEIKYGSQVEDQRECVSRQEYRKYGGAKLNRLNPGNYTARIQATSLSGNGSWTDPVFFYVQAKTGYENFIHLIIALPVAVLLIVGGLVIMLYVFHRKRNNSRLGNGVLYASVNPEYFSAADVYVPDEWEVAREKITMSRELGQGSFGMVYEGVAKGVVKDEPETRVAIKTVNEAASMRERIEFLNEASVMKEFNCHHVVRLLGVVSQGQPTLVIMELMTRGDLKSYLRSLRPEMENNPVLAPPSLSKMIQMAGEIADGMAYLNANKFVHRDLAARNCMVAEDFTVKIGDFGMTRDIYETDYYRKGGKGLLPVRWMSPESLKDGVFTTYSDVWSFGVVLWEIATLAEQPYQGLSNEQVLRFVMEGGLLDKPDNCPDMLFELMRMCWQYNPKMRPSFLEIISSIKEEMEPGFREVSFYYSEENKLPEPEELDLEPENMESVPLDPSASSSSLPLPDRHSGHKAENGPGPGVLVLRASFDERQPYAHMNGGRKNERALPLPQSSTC

Compound	inhibition at 1 µM [1] [%]	inhibition at 1 µM [2] [%]	inhibition at 1 µM [3] [%]	inhibition at 1 µM [4] [%]	inhibition at 1 µM [5] [%]	inhibition at 1 µM [6] [%]
C=CC(=O)N1CCCC(c2c(F)cc(C(N)=O)c3[nH]c4c(c23)CCCCC4)C1 (single isomer, unassigned) [Compound 5-6]	-69.1	-20.7	2.5	-16.7	15.7	-14.2
C=CC(=O)N1CCC[C@@H](c2c(F)cc(C(N)=O)c3[nH]c4c(c23)CC2(CC4)CC2)C1 [Compound 6-2, (S)-5-(1-acryloylpiperidin-3-yl)-6-fluoro-1,2,4,9-tetrahydrospiro[carbazole-3,1′-cyclopropane]-8-carboxamide]	16.5	-4.2	-7.6	-11.6	-7.1	-32.9
C=CC(=O)N1CCC[C@@H](c2c(F)cc(C(N)=O)c3[nH]c4c(c23)CCC4)C1 [Compound 10-2, (S)-8-(1-acryloylpiperidin-3-yl)-7-fluoro-1,2,3,4-tetrahydrocyclo-penta[b]indole-5-carboxamide]	-14.6	-14.5	-17	-26.1	-37.5	-12.1
